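Cells were grown in 96-well plates and exposed to each compound for 48 hours at five concentrations; endpoints were interpolated linearly between bracketing concentrations, or set to the highest concentration if not reached. GI50: concentration for 50% inhibition of growth.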 Activity calls are given as the source filed them. Rule as the data show it: active = GI50 up to about 1.1 µM and inactive = higher.
Key:
Experiment in all cases: NCI tumour cell line growth inhibition, 48 h
RPMI-8226 = tested on: RPMI-8226
HCT-116 = tested on: HCT-116
Malme-3M = tested on: Malme-3M
ACHN = tested on: ACHN
NCI-H460 = tested on: NCI-H460
RXF 393 = tested on: RXF 393
SF-295 = tested on: SF-295
786-0 = tested on: 786-0
KM12 = tested on: KM12
HOP-62 = tested on: HOP-62
NCI-H23 = tested on: NCI-H23
UACC-62 = tested on: UACC-62
SNB-75 = tested on: SNB-75
OVCAR-3 = tested on: OVCAR-3
SK-MEL-28 = tested on: SK-MEL-28
CAKI-1 = tested on: CAKI-1
HT-29 = tested on: HT-29
LOX IMVI = tested on: LOX IMVI
UACC-257 = tested on: UACC-257

Measured: GI50

COc1ccc2c(c1)CCc1c-2nc2cc3c(cc2c1O)OCO3
inactive: RPMI-8226 > 100 µM | HCT-116 > 100 µM | Malme-3M > 100 µM | ACHN > 100 µM | NCI-H460 > 100 µM | RXF 393 > 100 µM | SF-295 > 100 µM | 786-0 > 100 µM | KM12 > 100 µM | HOP-62 > 100 µM | NCI-H23 > 100 µM | UACC-62 > 100 µM | SNB-75 > 100 µM | OVCAR-3 > 100 µM | SK-MEL-28 > 100 µM | CAKI-1 > 100 µM | HT-29 > 100 µM | LOX IMVI > 100 µM

Brc1ccc2c(-c3csc(-c4c[nH]c5ccccc45)n3)c[nH]c2c1
inactive: RPMI-8226 19.4 µM | HCT-116 14.7 µM | Malme-3M 16.9 µM | ACHN 15.7 µM | NCI-H460 16.1 µM | RXF 393 22.4 µM | 786-0 17.9 µM | UACC-257 22.8 µM | KM12 14.2 µM | HOP-62 15 µM | UACC-62 18.2 µM | SNB-75 24.4 µM | OVCAR-3 13.8 µM | SK-MEL-28 14.9 µM | CAKI-1 15.8 µM | HT-29 15.6 µM | LOX IMVI 15.5 µM

O=C1CC(c2ccc(Cl)cc2)C2(C(=O)NC(=O)NC2=O)C(c2ccc(Cl)cc2)C1 (stereo not given)
inactive: RPMI-8226 10.3 µM | HCT-116 31.6 µM | Malme-3M 17.1 µM | ACHN 49 µM | NCI-H460 28.6 µM | RXF 393 15 µM | SF-295 28.8 µM | 786-0 25.1 µM | UACC-257 30.8 µM | KM12 36.4 µM | HOP-62 22.9 µM | NCI-H23 34 µM | UACC-62 40.5 µM | SNB-75 49.5 µM | OVCAR-3 24.9 µM | SK-MEL-28 18.2 µM | CAKI-1 35.2 µM | HT-29 23 µM | LOX IMVI 31.4 µM

COC(=O)CSc1nnc(-c2ccc(O)c([N+](=O)[O-])c2)[nH]1
inactive: RPMI-8226 > 100 µM | HCT-116 > 100 µM | Malme-3M > 100 µM | ACHN > 100 µM | NCI-H460 > 100 µM | RXF 393 > 100 µM | SF-295 > 100 µM | 786-0 > 100 µM | UACC-257 > 100 µM | NCI-H23 > 100 µM | UACC-62 > 100 µM | SNB-75 > 100 µM | OVCAR-3 > 100 µM | SK-MEL-28 > 100 µM | CAKI-1 > 100 µM | HT-29 > 100 µM | LOX IMVI > 100 µM

CNS(=O)(=O)NNS(=O)(=O)c1ccc(Br)cc1
inactive: RPMI-8226 > 100 µM | HCT-116 99.3 µM | Malme-3M > 100 µM | ACHN > 100 µM | NCI-H460 42.7 µM | RXF 393 > 100 µM | 786-0 63.1 µM | UACC-257 > 100 µM | HOP-62 > 100 µM | NCI-H23 > 100 µM | UACC-62 > 100 µM | SNB-75 47 µM | SK-MEL-28 > 100 µM | CAKI-1 > 100 µM | HT-29 > 100 µM | LOX IMVI > 100 µM

O=C(NC12CC3CC(CC(C3)C1)C2)C(=O)c1c[nH]c2ccc(Br)cc12
inactive: RPMI-8226 6.67 µM | HCT-116 14.6 µM | Malme-3M 17.9 µM | ACHN 15.6 µM | NCI-H460 10.2 µM | RXF 393 2.43 µM | SF-295 4.18 µM | 786-0 7.13 µM | UACC-257 43.4 µM | KM12 7.08 µM | HOP-62 7.06 µM | NCI-H23 33.1 µM | UACC-62 23.5 µM | SNB-75 12.6 µM | OVCAR-3 11.2 µM | SK-MEL-28 43.1 µM | CAKI-1 39.3 µM | HT-29 3.71 µM | LOX IMVI 5.25 µM

COc1cc2c(cc1OC)C(C(=O)c1cccc(OC)c1OC)C(=O)N(C)CC2 (stereo not given)
inactive: RPMI-8226 > 100 µM | HCT-116 > 100 µM | Malme-3M > 100 µM | ACHN > 100 µM | NCI-H460 > 100 µM | RXF 393 > 100 µM | 786-0 > 100 µM | UACC-257 > 100 µM | KM12 > 100 µM | HOP-62 > 100 µM | NCI-H23 > 100 µM | UACC-62 > 100 µM | SNB-75 > 100 µM | OVCAR-3 > 100 µM | SK-MEL-28 > 100 µM | CAKI-1 > 100 µM | HT-29 > 100 µM | LOX IMVI > 100 µM

C/C(=C\CNc1ncnc2c1ncn2C1CCCCO1)COP(=O)(O)O (stereo not given)
inactive: RPMI-8226 > 100 µM | HCT-116 > 100 µM | Malme-3M > 100 µM | ACHN > 100 µM | NCI-H460 > 100 µM | RXF 393 > 100 µM | SF-295 > 100 µM | 786-0 > 100 µM | UACC-257 > 100 µM | KM12 > 100 µM | HOP-62 > 100 µM | NCI-H23 > 100 µM | UACC-62 > 100 µM | SNB-75 > 100 µM | OVCAR-3 > 100 µM | SK-MEL-28 > 100 µM | CAKI-1 > 100 µM | HT-29 > 100 µM | LOX IMVI > 100 µM

COC(=O)C12C3C4C5C3(C#N)C1C5(C(=O)OC)C42C(=O)N(C(C)C)C(C)C (stereo not given)
inactive: RPMI-8226 > 48.6 µM | HCT-116 39.9 µM | Malme-3M > 100 µM | ACHN > 100 µM | NCI-H460 > 57.5 µM | RXF 393 > 100 µM | SF-295 > 100 µM | 786-0 > 100 µM | UACC-257 > 100 µM | KM12 > 100 µM | HOP-62 > 100 µM | NCI-H23 > 100 µM | UACC-62 > 100 µM | SNB-75 > 100 µM | OVCAR-3 > 100 µM | SK-MEL-28 > 100 µM | CAKI-1 > 100 µM | HT-29 > 100 µM | LOX IMVI 58.1 µM

CN(C)C(=S)/N=c1\ss/c(=N\C(=S)N(C)C)n1-c1ccc(Cl)c(Cl)c1
inactive: RPMI-8226 > 100 µM | HCT-116 > 100 µM | Malme-3M > 100 µM | ACHN > 100 µM | NCI-H460 > 100 µM | RXF 393 89.9 µM | SF-295 > 100 µM | 786-0 > 100 µM | UACC-257 > 100 µM | KM12 > 100 µM | HOP-62 40.6 µM | NCI-H23 > 100 µM | UACC-62 30.9 µM | SNB-75 27.1 µM | OVCAR-3 > 100 µM | SK-MEL-28 > 100 µM | CAKI-1 > 100 µM | HT-29 > 100 µM | LOX IMVI > 100 µM

COc1cc2c(c(OC)c1)C1(CC(CC#N)C2)SCCS1 (stereo not given)
inactive: RPMI-8226 > 100 µM | HCT-116 > 100 µM | Malme-3M > 100 µM | ACHN > 100 µM | NCI-H460 > 100 µM | RXF 393 > 100 µM | 786-0 > 100 µM | UACC-257 > 100 µM | KM12 > 100 µM | HOP-62 > 100 µM | UACC-62 > 100 µM | SNB-75 56.9 µM | OVCAR-3 > 100 µM | SK-MEL-28 > 100 µM | CAKI-1 > 100 µM

CC(=O)NC(Cc1ccccc1)C(=S)N1CCCC1 (stereo not given)
inactive: RPMI-8226 > 100 µM | HCT-116 > 100 µM | Malme-3M > 100 µM | ACHN > 100 µM | NCI-H460 > 100 µM | RXF 393 > 100 µM | SF-295 > 100 µM | 786-0 > 100 µM | UACC-257 > 100 µM | KM12 > 100 µM | HOP-62 > 100 µM | NCI-H23 > 100 µM | UACC-62 > 100 µM | SNB-75 55.3 µM | OVCAR-3 > 100 µM | SK-MEL-28 > 100 µM | CAKI-1 > 100 µM | HT-29 > 100 µM | LOX IMVI > 100 µM

CC(O)C(N/C=C1/N=C(c2ccccc2)OC1=O)C(=O)O (stereo not given)
inactive: RPMI-8226 > 100 µM | HCT-116 > 100 µM | Malme-3M > 100 µM | ACHN > 100 µM | NCI-H460 > 100 µM | RXF 393 > 100 µM | SF-295 > 100 µM | 786-0 > 100 µM | UACC-257 > 100 µM | KM12 > 100 µM | HOP-62 > 100 µM | NCI-H23 > 100 µM | UACC-62 > 100 µM | SNB-75 > 100 µM | OVCAR-3 > 100 µM | SK-MEL-28 > 100 µM | CAKI-1 > 100 µM | HT-29 > 100 µM | LOX IMVI > 100 µM

O=C(c1ccccn1)c1nc(-c2ccc(Cl)c(Cl)c2)nc2ccc(Cl)cc12
inactive: RPMI-8226 > 100 µM | HCT-116 15.5 µM | Malme-3M 32.3 µM | ACHN 44.3 µM | NCI-H460 50.4 µM | RXF 393 18.7 µM | SF-295 31.1 µM | 786-0 44.6 µM | UACC-257 > 100 µM | KM12 > 100 µM | HOP-62 21.3 µM | NCI-H23 20.3 µM | UACC-62 39.2 µM | SNB-75 12.3 µM | OVCAR-3 42.7 µM | SK-MEL-28 > 100 µM | CAKI-1 56.6 µM | HT-29 > 100 µM

O=C(NCP(=O)(O)O)c1cccnc1 [(NICOTINAMIDOMETHYL)PHOSPHONIC ACID]
inactive: RPMI-8226 > 100 µM | HCT-116 > 100 µM | ACHN > 100 µM | NCI-H460 > 100 µM | RXF 393 > 100 µM | SF-295 > 100 µM | 786-0 > 100 µM | UACC-257 > 100 µM | KM12 > 100 µM | HOP-62 > 100 µM | NCI-H23 > 100 µM | UACC-62 > 100 µM | SNB-75 92.3 µM | OVCAR-3 > 100 µM | SK-MEL-28 > 100 µM | CAKI-1 > 100 µM | HT-29 > 100 µM | LOX IMVI > 100 µM
